Source: patent US6379692B1, “Pharmaceutical composition comprising a suspension for the active ingredient” (Chauvin Pharmaceuticals Limited, priority 1997, dated 2002)

Assay: particle size by Coulter counter (100 μm tube)
Assay type: physicochemical
Conditions: without the use of a viscosity-enhancing agent
Description: (iii) bringing the salt solution, the aqueous suspension or dispersion and the acid into admixture whereby there is formed a precipitate of microparticles of the active ingredient wherein 90% of the microparticles are of a diameter less than about 10 μm (number) when measured by a Coulter counter (100 μm tube).
Step (iii) may be undertaken by first bringing the salt solution into admixture with the aqueous suspension or dispersion followed by addition of the acid. However, preferably, the acid is added to the aqueous suspension/dispersion prior to addition thereto of the salt solution. Preferably, more base is then added to the suspension to neutralize the hydrophilic polymer(s). […]
However, in contrast to when pre-micronized active ingredient is used, the process of the present invention whereby such fine particles are produced in situ by precipitation results in a better distribution of particle size, with the D90 at room temperature being of the order of 5-10 μm (number), preferably 7-9 μm (number) or 10-16 μm (volume), whereas for pre-micronized drug the D90 is of the order of 5-10 μm (number) or 21-24 μm (volume). […] The term “D90” as used herein with respect to particle size distribution means that 90% of the particles have a diameter, when measured by a Coulter counter (100 μm tube), of less than the quoted figure. […]

SMILES: Nc1nc2c(ncn2COCCO)c(=O)[nH]1 [aciclovir, 2-amino-1,9-dihydro-9-[(2-hydroxyethoxy)methyl]6H-purin-6-one]
- length of needle-shaped crystals precipitated: greater than 30 μm
